From patent US11208412B2 (DAEGU-GYEONGBUK MEDICAL INNOVATION FOUNDATION, priority 2017, dated 2021) come the findings set out here.

Holding throughout (assay): Kinase selectivity, DiscoverX scanMAX Kinase assay panel (% control)
Common to all, as to assay type: binding

For assay [1], the target named is T1, kinases of the scanMAX Kinase assay panel (Homo sapiens, UniProt Q9UM73, L1196M).
T1 construct: purchased DiscoverX Co. (contract measurement) scanMAX Kinase assay panel
The note with it: ALK(L1196M); 1 uM. In outline: (§1)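 Binding-panel profiling at one concentration, 1 uM in DMSO; values are % of DMSO control after subtracting the positive-control floor. Less than 35% means activity on that kinase.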

The target in assay [2] is T2, kinases of the scanMAX Kinase assay panel (Homo sapiens, UniProt P49841).
T2 construct: purchased DiscoverX Co. (contract measurement) scanMAX Kinase assay panel
T2 sequence (P49841 whole entry): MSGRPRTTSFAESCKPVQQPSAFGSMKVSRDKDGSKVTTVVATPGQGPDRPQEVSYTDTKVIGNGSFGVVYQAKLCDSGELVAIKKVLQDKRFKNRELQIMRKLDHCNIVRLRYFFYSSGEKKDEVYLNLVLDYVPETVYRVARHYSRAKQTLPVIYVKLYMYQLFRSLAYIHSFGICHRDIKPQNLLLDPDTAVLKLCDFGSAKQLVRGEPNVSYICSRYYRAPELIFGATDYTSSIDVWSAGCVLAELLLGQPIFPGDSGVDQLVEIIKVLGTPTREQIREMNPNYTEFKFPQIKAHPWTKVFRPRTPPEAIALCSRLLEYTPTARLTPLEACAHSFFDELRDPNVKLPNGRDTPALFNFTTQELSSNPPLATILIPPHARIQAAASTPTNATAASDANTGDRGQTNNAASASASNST
The note with it: GSK3B; 1 uM. Summed up:
as §1

For assay [3], the target named is T3, kinases of the scanMAX Kinase assay panel (Homo sapiens, UniProt Q02156).
T3 construct: purchased DiscoverX Co. (contract measurement) scanMAX Kinase assay panel
T3 sequence (Q02156 1-737): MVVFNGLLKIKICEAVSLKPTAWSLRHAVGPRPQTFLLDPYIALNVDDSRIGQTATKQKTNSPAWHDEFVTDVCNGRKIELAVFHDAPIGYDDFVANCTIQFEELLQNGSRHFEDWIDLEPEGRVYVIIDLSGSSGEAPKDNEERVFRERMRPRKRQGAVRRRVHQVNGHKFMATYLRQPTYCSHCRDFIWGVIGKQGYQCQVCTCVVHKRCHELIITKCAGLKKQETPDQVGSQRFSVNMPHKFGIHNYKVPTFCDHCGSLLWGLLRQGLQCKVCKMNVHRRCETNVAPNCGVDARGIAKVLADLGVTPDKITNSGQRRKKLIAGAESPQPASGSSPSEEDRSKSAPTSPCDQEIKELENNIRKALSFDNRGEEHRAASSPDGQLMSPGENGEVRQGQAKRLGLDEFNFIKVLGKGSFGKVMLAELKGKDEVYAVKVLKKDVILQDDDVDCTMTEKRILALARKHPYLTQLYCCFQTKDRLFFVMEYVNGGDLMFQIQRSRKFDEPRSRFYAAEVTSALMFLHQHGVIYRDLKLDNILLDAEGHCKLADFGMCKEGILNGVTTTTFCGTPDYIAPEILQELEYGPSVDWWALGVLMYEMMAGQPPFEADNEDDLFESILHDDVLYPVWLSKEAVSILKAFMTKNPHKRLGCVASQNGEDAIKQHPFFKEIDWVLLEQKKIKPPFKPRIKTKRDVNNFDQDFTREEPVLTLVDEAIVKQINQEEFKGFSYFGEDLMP
The conditions noted are these: PRKCE; 1 uM. Summed up: as §1

Assay [4] deals with T4, kinases of the scanMAX Kinase assay panel (Homo sapiens, UniProt Q96PY6).
T4 construct: purchased DiscoverX Co. (contract measurement) scanMAX Kinase assay panel
T4 sequence (Q96PY6 1-1258): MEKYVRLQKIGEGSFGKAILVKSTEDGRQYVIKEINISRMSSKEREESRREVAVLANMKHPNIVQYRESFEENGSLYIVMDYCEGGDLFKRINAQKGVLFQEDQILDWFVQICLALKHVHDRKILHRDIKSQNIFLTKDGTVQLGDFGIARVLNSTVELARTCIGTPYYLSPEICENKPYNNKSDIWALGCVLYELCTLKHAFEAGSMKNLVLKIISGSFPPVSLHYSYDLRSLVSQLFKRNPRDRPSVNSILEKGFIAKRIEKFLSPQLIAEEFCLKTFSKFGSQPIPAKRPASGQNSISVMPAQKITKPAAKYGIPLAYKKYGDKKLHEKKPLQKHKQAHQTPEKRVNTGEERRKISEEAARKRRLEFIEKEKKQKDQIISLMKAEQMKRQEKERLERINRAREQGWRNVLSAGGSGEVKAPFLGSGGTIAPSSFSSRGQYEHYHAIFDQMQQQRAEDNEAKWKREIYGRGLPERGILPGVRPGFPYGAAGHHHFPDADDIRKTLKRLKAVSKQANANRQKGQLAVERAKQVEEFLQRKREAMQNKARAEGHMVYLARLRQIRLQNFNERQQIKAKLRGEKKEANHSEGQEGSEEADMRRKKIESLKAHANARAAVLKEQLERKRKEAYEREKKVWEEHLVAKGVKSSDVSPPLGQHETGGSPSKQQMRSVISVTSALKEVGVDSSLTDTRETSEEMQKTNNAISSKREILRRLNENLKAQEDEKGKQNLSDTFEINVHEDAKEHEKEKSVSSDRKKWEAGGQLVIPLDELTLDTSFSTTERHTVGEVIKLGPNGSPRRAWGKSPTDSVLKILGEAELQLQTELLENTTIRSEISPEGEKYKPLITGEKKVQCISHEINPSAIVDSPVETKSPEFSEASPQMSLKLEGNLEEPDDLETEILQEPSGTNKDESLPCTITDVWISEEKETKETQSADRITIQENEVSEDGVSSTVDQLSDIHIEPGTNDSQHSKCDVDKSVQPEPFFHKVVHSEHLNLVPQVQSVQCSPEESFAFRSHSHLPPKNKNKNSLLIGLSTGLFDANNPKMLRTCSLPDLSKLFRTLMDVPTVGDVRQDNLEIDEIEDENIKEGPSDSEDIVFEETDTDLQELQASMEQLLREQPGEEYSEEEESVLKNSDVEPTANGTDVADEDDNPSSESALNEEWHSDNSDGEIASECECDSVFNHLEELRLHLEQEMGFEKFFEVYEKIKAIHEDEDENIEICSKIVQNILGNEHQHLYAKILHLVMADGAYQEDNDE
The note with it: NEK1; 1 uM. In outline:
as §1

T1 sequence (Q9UM73 19-1620 L1196M): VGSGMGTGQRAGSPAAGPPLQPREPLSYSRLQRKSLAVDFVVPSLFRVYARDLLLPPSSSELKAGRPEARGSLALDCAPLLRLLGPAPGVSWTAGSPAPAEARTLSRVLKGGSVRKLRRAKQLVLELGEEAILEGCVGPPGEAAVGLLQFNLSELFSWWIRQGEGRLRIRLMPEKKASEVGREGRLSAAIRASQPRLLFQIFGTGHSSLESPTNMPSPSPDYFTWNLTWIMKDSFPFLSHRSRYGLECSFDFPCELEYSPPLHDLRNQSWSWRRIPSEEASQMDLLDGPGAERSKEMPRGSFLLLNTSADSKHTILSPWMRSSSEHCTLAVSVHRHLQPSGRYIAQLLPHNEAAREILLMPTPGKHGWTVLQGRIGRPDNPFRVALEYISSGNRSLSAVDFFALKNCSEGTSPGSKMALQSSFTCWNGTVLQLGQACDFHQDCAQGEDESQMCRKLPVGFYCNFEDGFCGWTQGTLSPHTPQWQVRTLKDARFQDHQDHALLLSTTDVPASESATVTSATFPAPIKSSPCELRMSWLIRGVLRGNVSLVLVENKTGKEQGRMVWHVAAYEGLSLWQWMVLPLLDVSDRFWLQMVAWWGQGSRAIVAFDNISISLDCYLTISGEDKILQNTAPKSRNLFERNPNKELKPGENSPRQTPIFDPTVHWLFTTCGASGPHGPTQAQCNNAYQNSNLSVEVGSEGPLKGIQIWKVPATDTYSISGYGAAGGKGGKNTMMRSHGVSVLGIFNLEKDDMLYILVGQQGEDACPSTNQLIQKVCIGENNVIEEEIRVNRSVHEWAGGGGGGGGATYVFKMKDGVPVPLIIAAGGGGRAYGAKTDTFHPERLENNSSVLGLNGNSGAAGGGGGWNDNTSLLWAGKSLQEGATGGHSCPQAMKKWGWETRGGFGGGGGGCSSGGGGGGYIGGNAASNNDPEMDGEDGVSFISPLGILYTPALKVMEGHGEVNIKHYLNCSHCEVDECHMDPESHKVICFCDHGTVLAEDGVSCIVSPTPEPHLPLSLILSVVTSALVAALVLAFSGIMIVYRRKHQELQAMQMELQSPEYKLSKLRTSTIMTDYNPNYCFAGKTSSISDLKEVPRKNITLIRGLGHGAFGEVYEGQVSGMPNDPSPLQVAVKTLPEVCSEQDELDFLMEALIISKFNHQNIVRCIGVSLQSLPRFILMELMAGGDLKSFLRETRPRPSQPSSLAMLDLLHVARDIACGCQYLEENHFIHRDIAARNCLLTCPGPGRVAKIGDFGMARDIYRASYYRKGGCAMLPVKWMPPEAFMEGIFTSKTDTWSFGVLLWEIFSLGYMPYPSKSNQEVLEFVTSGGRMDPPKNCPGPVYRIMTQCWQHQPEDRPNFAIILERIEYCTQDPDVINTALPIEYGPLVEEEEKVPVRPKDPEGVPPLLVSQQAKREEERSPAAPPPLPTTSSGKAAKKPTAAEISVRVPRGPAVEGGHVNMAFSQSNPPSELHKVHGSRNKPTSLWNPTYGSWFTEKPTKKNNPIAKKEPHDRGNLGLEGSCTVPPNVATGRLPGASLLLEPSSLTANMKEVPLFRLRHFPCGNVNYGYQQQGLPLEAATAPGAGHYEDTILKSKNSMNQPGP

With `CNc1nc(Nc2ccc(C(=O)N3CCOCC3)cc2OC)nc2[nH]cc(C#N)c12` [Example 1, 2-((2-methoxy-4-(morpholine-4-carbonyl)phenyl)amino)-4-(methylamino)-7H-pyrrolo[2,3-d]pyrimidine-5-carbonitrile], the remaining binding at 1 µM in assay [1] was determined as 33%; in assay [2], 79%; in assay [3] it was 100%; in assay [4], 94%.

As for `CC1(Nc2nc(Nc3cnn([C@H]4CCN(C5COC5)C[C@@H]4F)c3Cl)nc3[nH]cc(C#N)c23)CC1` [Example 52, 2-((5-chloro-1-((3S,4S)-3-fluoro-1-(oxetane-3-yl)piperidine-4-yl)-1H-pyrazole-4-yl)amino)((1-methylcyclopropyl)amino)-7H-pyrrolo[2,3-d]pyrimidine-5-carbonitrile], the remaining binding at 1 µM in assay [1] was determined as 9.9%; in assay [2] it was 50%; in assay [3], 100%; in assay [4], 80%.

In the case of `CCNc1nc(Nc2ccc(C(=O)N3CCC(N4CCOCC4)CC3)cc2OC)nc2[nH]cc(C(F)(F)F)c12` [Example 104, (4-((4-(ethylamino)-5-(trifluoromethyl)-7H-pyrrolo[2,3-d]pyrimidine-2-yl)amino)-3-methoxyphenyl)(4-morpholinopiperidine-1-yl)methanone], the remaining binding at 1 µM in assay [1] was 0.75%; in assay [2], 83%; in assay [3] it was 100%; in assay [4] it was 93%.
